≈ marks a conversion by molar mass, not a printed value. Where two headings read alike, the source gives them in different places.
How the values were obtained:
[1] = tested on: Enterococcus faecalis ATCC 19433; assay: Inhibition of bacterial growth in culture, spiral gradient endpoint assay (MIC); assay type: cell-based; conditions: Enterococcus faecalis, ATCC 19433 /, 16 h
From the text: J. Microbiol. Meths. […] Int. J. Exp. Clin. Chemother. […] Adv.

[2] = tested on: Escherichia coli D21f2tolC; assay: microbe, parasite or virus in culture; conditions: 16 h
[3] = tested on: Staphylococcus aureus ATCC 12600; assay: Inhibition of bacterial growth in culture, spiral gradient endpoint assay (MIC); conditions: Staphylococcus aureus, ATCC12600, 16 h
[4] = read-out: MIC E. faecalis, Mueller-Hinton II agar, 16 h at 37° C.
[5] = read-out: MIC E. coli D21f2tolC, Mueller-Hinton II agar, 16 h at 37° C.
[6] = read-out: MIC S. aureus 12600, Mueller-Hinton II agar, 16 h at 37° C.

SMILES	MIC [1, 4] [µg/mL]	MIC [2, 5] [µg/mL]	MIC [3, 6] [µg/mL]	MIC ([1]; read-out: MIC E. faecalis) [µg/mL]	MIC ([2]; read-out: MIC E. coli D21f2tolC) [µg/mL]	MIC ([3]; read-out: MIC S. aureus 12600) [µg/mL]
CC1=C(O)C(C)(C)C(=O)C(C(=O)C2CC2c2ccc(C(F)(F)F)cc2C(F)(F)F)=C1O (centres unmarked) [Example 83, 2-(2-(2,4-bis(trifluoromethyl)phenyl)cyclopropanecarbonyl)-3,5-dihydroxy-4,6,6-trimethylcyclohexa-2,4-dienone]	> 40	2.4 (≈ 5.35 µM)	5 (≈ 11.2 µM)			
O=C(/C=C/c1ccc(Oc2ccc(F)cc2)cc1)c1c(O)cc(O)cc1O [Example 11, (E)-3-(4-(4-fluorophenoxy)phenyl)-1-(2,4,6-trihydroxyphenyl)prop-2-en-1-one]	> 40	5.9 (≈ 16.1 µM)	17 (≈ 46.4 µM)			
Cc1cc(Cl)ccc1C1CC1C(=O)c1c(O)cc(O)cc1O (centres unmarked) [Example 53, (2-(4-chloro-2-methylphenyl)cyclopropyl)(2,4,6-trihydroxyphenyl)methanone]	5.3 (≈ 16.6 µM)	4.7 (≈ 14.7 µM)	4.7 (≈ 14.7 µM)			
O=C(c1c(O)cc(O)cc1O)C1CC1c1ccc(Oc2ccc(F)cc2)cc1C(F)(F)F (centres unmarked) [Example 44, (2-(4-(4-fluorophenoxy)-2-(trifluoromethyl)phenyl)cyclopropyl)(2,4,6-trihydroxyphenyl)methanone]	1.8 (≈ 4.01 µM)	1.5 (≈ 3.35 µM)	1.5 (≈ 3.35 µM)			
CCC1=C(O)C(CC)(CC)C(=O)C(C(=O)C2CC2c2ccc(Cl)cc2C)=C1O (centres unmarked) [Example 82, 2-(2-(4-chloro-2-methylphenyl)cyclopropanecarbonyl)-4,6,6-triethyl-3,5-dihydroxycyclohexa-2,4-dienone]	12 (≈ 29.8 µM)	1.2 (≈ 2.98 µM)	3.6 (≈ 8.93 µM)			
Cc1ccc(C2CC2C(=O)c2c(O)cc(O)cc2O)cc1 (centres unmarked) [Example 19, (2-(p-tolyl)cyclopropyl)(2,4,6-trihydroxyphenyl)methanone]	> 40	13 (≈ 45.7 µM)	20 (≈ 70.3 µM)			
Cc1cc(Oc2ccccc2)ccc1C1CC1C(=O)c1c(O)cc(O)c(Cl)c1O (centres unmarked) [Example 42, (3-chloro-2,4,6-trihydroxyphenyl)(2-(2-methyl-4-phenoxyphenyl)cyclopropyl)methanone]	16 (≈ 38.9 µM)	10 (≈ 24.3 µM)	14 (≈ 34.1 µM)			
CCC1=C(O)C(CC)(CC)C(=O)C(C(=O)C2CC2c2ccc(Oc3ccc(F)cc3)cc2)=C1O (centres unmarked) [Example 62, 4,6,6-triethyl-2-(2-(4-(4-fluorophenoxy)phenyl)cyclopropanecarbonyl)-3,5-dihydroxycyclohexa-2,4-dienone]	0.51 (≈ 1.1 µM)	0.28 (≈ 0.603 µM)	0.4 (≈ 0.861 µM)			
CCOc1ccc(C2CC2C(=O)c2c(O)cc(O)cc2O)cc1 (centres unmarked) [Example 21, (2-(4-ethoxyphenyl)cyclopropyl)(2,4,6-trihydroxyphenyl)methanone]	> 40	20 (≈ 63.6 µM)	16 (≈ 50.9 µM)			
O=C(CCc1ccc(Oc2cccc(Cl)c2)cc1)c1c(O)cc(O)cc1O [Example 3, 3-(4-(3-chlorophenoxy)phenyl)-1-(2,4,6-trihydroxyphenyl)propan-1-one]	3.7 (≈ 9.62 µM)	1.9 (≈ 4.94 µM)	1.9 (≈ 4.94 µM)			
O=C(c1c(O)cc(O)cc1O)C1CC1c1ccc(Oc2ccc(F)cc2)cc1 (centres unmarked) [Example 12, (2-(4-(4-fluorophenoxy)phenyl)cyclopropyl)(2,4,6-trihydroxyphenyl) methanone]	4 (≈ 10.5 µM)	1.5 (≈ 3.94 µM)	3.1 (≈ 8.15 µM)			
O=C(/C=C/c1ccc(Oc2ccc(F)cc2)cc1C(F)(F)F)c1c(O)cc(O)cc1O [Example 32, (E)-3-(4-(4-fluorophenoxy)-2-(trifluoromethyl)phenyl)-1-(2,4,6-trihydroxyphenyl)prop-2-en-1-one]	5.7 (≈ 13.1 µM)	2.1 (≈ 4.83 µM)	3.5 (≈ 8.06 µM)			
CCC1=C(O)C(CC)(CC)C(=O)C(C(=O)C2CC2c2ccc(C(F)(F)F)cc2C(F)(F)F)=C1O (centres unmarked) [Example 87, 2-(2-(2,4-bis(trifluoromethyl)phenyl)cyclopropanecarbonyl)-4,6,6-triethyl-3,5-dihydroxycyclohexa-2,4-dienone]	> 40	3.2 (≈ 6.52 µM)	5.9 (≈ 12 µM)			
CCC1=C(O)C(CC)(CC)C(=O)C(C(=O)CCc2ccc(Oc3ccc(F)cc3)cc2C)=C1O [Example 74, 4,6,6-triethyl-2-(3-(4-(4-fluorophenoxy)-2-methylphenyl)propanoyl)-3,5-dihydroxycyclohexa-2,4-dienone]	11 (≈ 23.6 µM)	0.9 (≈ 1.93 µM)	1.7 (≈ 3.64 µM)			
O=C(/C=C/c1ccc(Oc2ccc(Cl)cc2)cc1C(F)(F)F)c1c(O)cc(O)cc1O [Example 17, (E)-3-(4-(4-chlorophenoxy)-2-(trifluoromethyl)phenyl)-1-(2,4,6-trihydroxyphenyl)prop-2-en-1-one]	1.9 (≈ 4.21 µM)	2.5 (≈ 5.55 µM)	1.8 (≈ 3.99 µM)			
O=C(CCc1ccc(Oc2ccc(Cl)cc2)cc1)c1c(O)cc(O)cc1O [Example 4, 3-(4-(4-chlorophenoxy)phenyl)-1-(2,4,6-trihydroxyphenyl)propan-1-one]				3.2 (≈ 8.32 µM)	1.5 (≈ 3.9 µM)	2.4 (≈ 6.24 µM)

SMILES	MIC [1, 4] [µg/mL]	MIC [2, 5] [µg/mL]	MIC [3, 6] [µg/mL]	MIC ([1]; read-out: MIC E. faecalis) [µg/mL]	MIC ([2]; read-out: MIC E. coli D21f2tolC) [µg/mL]	MIC ([3]; read-out: MIC S. aureus 12600) [µg/mL]
CCCC1(CCC)C(=O)C(C(=O)C2CC2c2ccc(Oc3ccccc3)cc2)=C(O)C=C1O (centres unmarked) [Example 60, 3,5-dihydroxy-2-(2-(4-phenoxyphenyl)cyclopropanecarbonyl)-6,6-dipropylcyclohexa-2,4-dien-1one]	> 40	3.9 (≈ 8.73 µM)	10 (≈ 22.4 µM)			
O=C(c1c(O)cc(O)cc1O)C1CC1c1ccc(Oc2ccc(Cl)cc2)cc1C(F)(F)F (centres unmarked) [Example 25, (2-(4-(4-chlorophenoxy)-2-(trifluoromethyl)phenyl)cyclopropyl)(2,4,6-trihydroxyphenyl)methanone]	1.7 (≈ 3.66 µM)	1.5 (≈ 3.23 µM)	1.7 (≈ 3.66 µM)			
CCCC1=C(O)C(CCC)(CCC)C(=O)C(C(=O)CCc2ccc(Oc3ccc(F)cc3)cc2C(F)(F)F)=C1O [Example 68, 2-(3-(4-(4-fluorophenoxy)-2-(trifluoromethyl)phenyl)propanoyl)-3,5-dihydroxy-4,6,6-tripropylcyclohexa-2,4-dienone]	1.3 (≈ 2.31 µM)	1.5 (≈ 2.67 µM)	0.6 (≈ 1.07 µM)			
CC1=C(O)C(C)(C)C(=O)C(C(=O)C2CC2c2ccc(Cl)cc2C(F)(F)F)=C1O (centres unmarked) [Example 76, 2-(2-(4-chloro-2-(trifluoromethyl)phenyl)cyclopropanecarbonyl)-3,5-dihydroxy-4,6,6-trimethylcyclohexa-2,4-dienone]	> 40	3.1 (≈ 7.47 µM)	12 (≈ 28.9 µM)			
Cc1cc(Oc2ccccc2)ccc1/C=C/C(=O)c1c(O)cc(O)c(Cl)c1O [Example 40, (E)-1-(3-chloro-2,4,6-trihydroxyphenyl)-3-(2-methyl-4-phenoxyphenyl)prop-2-en-1-one]	> 40	9.4 (≈ 23.7 µM)	> 40			
O=C(c1c(O)cc(O)cc1O)C1CC1c1ccc(Oc2ccc(Cl)cc2Cl)cc1 (centres unmarked) [Example 29, (2-(4-(2,4-dichlorophenoxy)phenyl)cyclopropyl)(2,4,6-trihydroxyphenyl) methanone]	2.4 (≈ 5.56 µM)	1.5 (≈ 3.48 µM)	1.5 (≈ 3.48 µM)			
O=C(c1c(O)cc(O)cc1O)C1CC1c1ccc(Oc2ccc(Cl)cc2)cc1 (centres unmarked) [Example 13, (2-(4-(4-chlorophenoxy)phenyl)cyclopropyl)(2,4,6-trihydroxyphenyl)methanone]	4.8 (≈ 12.1 µM)	2.1 (≈ 5.29 µM)	4.3 (≈ 10.8 µM)			
CCCC1=C(O)C(CCC)(CCC)C(=O)C(C(=O)C2CC2c2ccc(Cl)cc2)=C1O (centres unmarked) [Example 79, 2-(2-(4-chlorophenyl)cyclopropanecarbonyl)-3,5-dihydroxy-4,6,6-tripropylcyclohexa-2,4-dienone]	0.61 (≈ 1.42 µM)	0.15 (≈ 0.348 µM)	0.27 (≈ 0.626 µM)			
CCCC1=C(O)C(CCC)(CCC)C(=O)C(C(=O)C2CC2c2ccc(Oc3ccc(F)cc3)cc2C)=C1O (centres unmarked) [Example 71, 2-(2-(4-(4-fluorophenoxy)-2-methylphenyl)cyclopropanecarbonyl)-3,5-dihydroxy-4,6,6-tripropylcyclohexa-2,4-dienone]	2.1 (≈ 4.03 µM)	2.3 (≈ 4.42 µM)	0.9 (≈ 1.73 µM)			
Cc1cc(Oc2ccc(F)cc2)ccc1CCC(=O)c1c(O)cc(O)c(Cl)c1O [Example 50, 1-(3-chloro-2,4,6-trihydroxyphenyl)-3-(4-(4-fluorophenoxy)-2-methylphenyl)propan-1-one]	18 (≈ 43.2 µM)	19 (≈ 45.6 µM)	16 (≈ 38.4 µM)			
Cc1ccc(C2CC2C(=O)c2c(O)cc(O)cc2O)c(C)c1 (centres unmarked) [Example 20, (2-(2,4-dimethylphenyl)cyclopropyl)(2,4,6-trihydroxyphenyl)methanone]	2.4 (≈ 8.04 µM)	1.7 (≈ 5.7 µM)	2.1 (≈ 7.04 µM)			
O=C(c1c(O)cc(O)c(Cl)c1O)C1CC1c1ccc(Oc2ccc(F)cc2)cc1C(F)(F)F (centres unmarked) [Example 51, (3-chloro-2,4,6-trihydroxyphenyl)(2-(4-(4-fluorophenoxy)-2-(trifluoromethyl)phenyl)cyclopropyl)methanone]	15 (≈ 31.1 µM)	16 (≈ 33.1 µM)	11 (≈ 22.8 µM)			
O=C(/C=C/c1ccc(Oc2ccccc2)cc1)c1c(O)cc(O)cc1O [Example 8, (E)-3-(4-phenoxyphenyl)-1-(2,4,6-trihydroxyphenyl)prop-2-en-1-one]	31 (≈ 89 µM)	3.8 (≈ 10.9 µM)	6.5 (≈ 18.7 µM)			
COc1ccc(C2CC2C(=O)c2c(O)cc(O)cc2O)cc1 (centres unmarked) [Example 38, (2-(4-methoxyphenyl)cyclopropyl)(2,4,6-trihydroxyphenyl)methanone]	> 40	> 40	> 40			
CCCc1c(O)cc(O)c(C(=O)/C=C/c2ccc(Oc3ccc(F)cc3)cc2)c1O [Example 67, (E)-3-(4-(4-fluorophenoxy)phenyl)-1-(2,4,6-trihydroxy-3-propylphenyl)prop-2-en-1-one]	0.55 (≈ 1.35 µM)	0.72 (≈ 1.76 µM)				

Reference: US10450292B2, “Inhibitors of bacterial RNA polymerase: arylpropanoyl, arylpropenoyl, and arylcyclopropanecarboxyl phloroglucinols” (Rutgers, The State University of New Jersey, priority 2015, dated 2019)
